Laboratory results: the NIST ThermoML archive (doi:10.1021/acs.jced.7b00201)

Assay: xn = mol fraction of the nth substance listed
Settings: 100 kPa, Liquid; for viscosity: Falling or rolling sphere viscometry; for mass density: Vibrating tube method

OCC1CC1 [cyclopropylmethanol] + CCCCCCCCCCCC
Settings | mass density [kg/m3] | viscosity [mPa·s]
293.15 K, x1 = 0.1039 | – | 1.484
293.15 K, x1 = 0.1135 | 754.8 | –
293.15 K, x1 = 0.2032 | – | 1.521
293.15 K, x1 = 0.2127 | 761.38 | –
293.15 K, x1 = 0.3022 | – | 1.605
293.15 K, x1 = 0.3059 | 768.71 | –
293.15 K, x1 = 0.3804 | 775.49 | –
293.15 K, x1 = 0.3997 | – | 1.683
293.15 K, x1 = 0.4993 | – | 1.884
293.15 K, x1 = 0.5067 | 789.46 | –
293.15 K, x1 = 0.5994 | – | 2.084
293.15 K, x1 = 0.6019 | 802.62 | –
293.15 K, x1 = 0.7 | – | 2.335
293.15 K, x1 = 0.7011 | 819.64 | –
293.15 K, x1 = 0.7921 | 839.53 | –
293.15 K, x1 = 0.797 | – | 2.671
293.15 K, x1 = 0.8991 | 870.68 | –
293.15 K, x1 = 0.9004 | – | 3.205
293.15 K, x1 = 1 | 912.99 | 4.029
298.15 K, x1 = 0.1039 | – | 1.354
298.15 K, x1 = 0.1135 | 751.08 | –
298.15 K, x1 = 0.2032 | – | 1.382
298.15 K, x1 = 0.2127 | 757.63 | –
298.15 K, x1 = 0.3022 | – | 1.455
298.15 K, x1 = 0.3059 | 764.92 | –
298.15 K, x1 = 0.3804 | 771.68 | –
298.15 K, x1 = 0.3997 | – | 1.52
298.15 K, x1 = 0.4993 | – | 1.688
298.15 K, x1 = 0.5067 | 785.59 | –
298.15 K, x1 = 0.5994 | – | 1.854
298.15 K, x1 = 0.6019 | 798.72 | –
298.15 K, x1 = 0.7 | – | 2.068
298.15 K, x1 = 0.7011 | 815.7 | –
298.15 K, x1 = 0.7921 | 835.57 | –
298.15 K, x1 = 0.797 | – | 2.35
298.15 K, x1 = 0.8991 | 866.69 | –
298.15 K, x1 = 0.9004 | – | 2.801
298.15 K, x1 = 1 | 908.94 | 3.485
303.15 K, x1 = 0.1039 | – | 1.241
303.15 K, x1 = 0.1135 | 747.35 | –
303.15 K, x1 = 0.2032 | – | 1.276
303.15 K, x1 = 0.2127 | 753.86 | –
303.15 K, x1 = 0.3022 | – | 1.325
303.15 K, x1 = 0.3059 | 761.1 | –
303.15 K, x1 = 0.3804 | 767.83 | –
303.15 K, x1 = 0.3997 | – | 1.38
303.15 K, x1 = 0.4993 | – | 1.521
303.15 K, x1 = 0.5067 | 781.69 | –
303.15 K, x1 = 0.5994 | – | 1.662
303.15 K, x1 = 0.6019 | 794.79 | –
303.15 K, x1 = 0.7 | – | 1.842
303.15 K, x1 = 0.7011 | 811.73 | –
303.15 K, x1 = 0.7921 | 831.56 | –
303.15 K, x1 = 0.797 | – | 2.081
303.15 K, x1 = 0.8991 | 862.66 | –
303.15 K, x1 = 0.9004 | – | 2.463
303.15 K, x1 = 1 | 904.85 | 3.037
308.15 K, x1 = 0.1039 | – | 1.142
308.15 K, x1 = 0.1135 | 743.6 | –
308.15 K, x1 = 0.2032 | – | 1.171
308.15 K, x1 = 0.2127 | 750.06 | –
308.15 K, x1 = 0.3022 | – | 1.213
308.15 K, x1 = 0.3059 | 757.26 | –
308.15 K, x1 = 0.3804 | 763.96 | –
308.15 K, x1 = 0.3997 | – | 1.258
308.15 K, x1 = 0.4993 | – | 1.378
308.15 K, x1 = 0.5067 | 777.76 | –
308.15 K, x1 = 0.5994 | – | 1.497
308.15 K, x1 = 0.6019 | 790.82 | –
308.15 K, x1 = 0.7 | – | 1.65
308.15 K, x1 = 0.7011 | 807.72 | –
308.15 K, x1 = 0.7921 | 827.52 | –
308.15 K, x1 = 0.797 | – | 1.853
308.15 K, x1 = 0.8991 | 858.59 | –
308.15 K, x1 = 0.9004 | – | 2.176
308.15 K, x1 = 1 | 900.74 | 2.661
313.15 K, x1 = 0.1039 | – | 1.055
313.15 K, x1 = 0.1135 | 739.84 | –
313.15 K, x1 = 0.2032 | – | 1.079
313.15 K, x1 = 0.2127 | 746.24 | –
313.15 K, x1 = 0.3022 | – | 1.114
313.15 K, x1 = 0.3059 | 753.4 | –
313.15 K, x1 = 0.3804 | 760.06 | –
313.15 K, x1 = 0.3997 | – | 1.153
313.15 K, x1 = 0.4993 | – | 1.254
313.15 K, x1 = 0.5067 | 773.81 | –
313.15 K, x1 = 0.5994 | – | 1.355
313.15 K, x1 = 0.6019 | 786.82 | –
313.15 K, x1 = 0.7 | – | 1.485
313.15 K, x1 = 0.7011 | 803.68 | –
313.15 K, x1 = 0.7921 | 823.45 | –
313.15 K, x1 = 0.797 | – | 1.658
313.15 K, x1 = 0.8991 | 854.48 | –
313.15 K, x1 = 0.9004 | – | 1.933
313.15 K, x1 = 1 | 896.58 | 2.344
318.15 K, x1 = 0.1039 | – | 0.977
318.15 K, x1 = 0.2032 | – | 0.998
318.15 K, x1 = 0.3022 | – | 1.028
318.15 K, x1 = 0.3997 | – | 1.06
318.15 K, x1 = 0.4993 | – | 1.146
318.15 K, x1 = 0.5994 | – | 1.232
318.15 K, x1 = 0.7 | – | 1.343
318.15 K, x1 = 0.797 | – | 1.491
318.15 K, x1 = 0.9004 | – | 1.725
318.15 K, x1 = 1 | – | 2.074
